Results as given in US20200383327A1, “METHOD OF IMPROVING PLANT PERFORMANCE” (The State of Israel, Ministry of Agriculture & Rural …, priority 2018, published 2020).
“Also recorded” adds a separate entry of the source.

Assays:
Assay type in all cases: in vivo
Alternaria alternata = test: Postharvest decay of 'Ettinger' avocado fruit, wound inoculated; conditions: 4 mM phenylalanine, FIG. 5
Experimental: FIGS. 5A-5B are a graph and a photograph showing induced resistance of harvested Avocado fruit to fungal pathogens. FIG. […] A day after dipping the treated or untreated fruits were wound inoculated on four spots in each fruit with 7 μl of Alternaria alternata conidia suspension (10^6 conidia/ml) and the decay area was monitored for 6 days post inoculation (dpi). FIG. 5B is representative pictures of inoculated fruits of control and treatments with 4 mM phenylalanine, 6 days post inoculation.

Botrytis = test: Resistance of petunia plants to Botrytis, increasing Phe concentrations
Experimental: The effect of treating petunia plants with increased concentrations of Phe was assessed: plants were either sprayed or drenched with increasing concentration of Phe three days prior to infection with Botrytis and on the day of infection. The infected area was followed for 7-10 days after infection.

Lasiodiplodia theobromae = test: Postharvest decay of 'Shelly' mango fruit, wound inoculated; conditions: for Inhibition of pathogenic activity: postharvest, mango
Experimental: (§1) FIGS. 4A-4B are graphs showing induced resistance of harvested Mango fruit to fungal pathogens. FIG. […] A day later the treated or untreated fruits were wound inoculated on four spots in each fruit with 7 μl of Lasiodiplodia theobromas conidia suspension (10^6 conidia/ml) and the decay area was monitored for 7 days post inoculation (dpi). FIG. […] A day later the treated or untreated fruits were wound inoculated on four spots in each fruit with 7 μl of Colletotrichum gloeosporioides conidia suspension (10^6 conidia/ml) and the decay area was monitored for 14 days post inoculation (dpi).

[1] = test system: Colletotrichum gloeosporioides; test: as above; conditions: for Inhibition of pathogenic activity: postharvest, mango
Experimental: as §1

Bemisia tabaci = test: Silver leaf whitefly incidence on tomato leaves; conditions: 4 mM Phe solution, drench or spray, each treatment; 30 days after treatment; FIG. 10
Experimental: FIG. 10 is a bar graph showing the effect of 4 mM Phe solution on the severity of silver leaf white fly (SLWF) on tomato plants. The Phe solution was applied by spraying and by drench on the tomato plants at 3 days before and 4 hours before incubation in the greenhouse. Incidence of SLWF was evaluated on a representative leaf 30 days after treatment.
The insect silver leaf whitefly Bemisia tabaci Gennadius (commonly also sweet potato whitefly) occurred naturally on the treated tomato plants. The plants were kept in a greenhouse with 18-28° C. Incidence of insect individuals' number on the 10th leaf of the tomato plants was counted.

Tuta absoluta = test: Tomato leaf miner damage on tomato plants, natural infestation in greenhouse
Experimental: FIGS. 3A-3E are images and bar graphs showing the effect of 4 mM of phenylalanine applied by drenching or spraying on the severity of […] in tomato, 13 days post treatment. FIG. 3A—an image showing the damage caused by the tomato leaf miner, the insect moth Tuta absoluta on tomato leaflet. FIG. 3B—a vertical bar graph showing severity of damage of Tuta absoluta on tomato leaves treated with drench or spray of 4 mM solution phenylalanine. Disease was evaluated on a 0-100% severity of symptoms coverage and calculation of area under disease progress curve (AUDPC) 13 days after treatment. […] Symptoms incidence per plant was evaluated 30 days after treatment. […] FIG. 3C—a vertical bar graph showing the effect of 4 mM Phe solution on the incidence of tomato leaf miner on tomato plants. The Phe solution was applied by spraying and by drench on the tomato plants at 3 days before and 4 hours before incubation in the greenhouse. Infection was natural. FIG. 3D—a vertical bar graph showing the effect of 4 mM Phe solution on the incidence of tomato leaf miner on tomato plants. The Phe solution was applied by spraying and by drench on the tomato plants at 3 days before and 4 hours before incubation in the greenhouse. Infection was natural. Symptoms incidences per plant at large size and at smaller size (up to 1 cm) were evaluated 30 days after treatment. […] FIG. 3E—a vertical bar graph showing the effect of 4 mM Phe solution on the rate of tomato leaf miner symptoms on tomato plants. The Phe solution was applied by spraying and by drench on the tomato plants at 3 days before and 4 hours before incubation in the greenhouse. Infection was natural. Symptoms incidences per plant at large size and at smaller size (up to 1 cm) were evaluated 30 days after treatment and the percent of large symptoms was calculated.
Tomato plants were grown in pots in a nonheated greenhouse where temperatures were 17-32° C. […] Damage of the pest was evaluated according to a 0-100% severity scale where 0=no symptoms followed by a calculation of area under disease progress curve (AUDPC) 13 days after treatment.

Anthracnose = Anthracnose incidence on harvested mango after orchard flowering spray; conditions: application during orchard flowering; stored at ambient temperature for 12 days; FIG. 23B
Source text: FIGS. 23A-C: Effect of flowering application on disease incidence. Avocado and Mango cv. ‘Kent’ orchards were sprayed with fungicide (Pyrimethanil+Fludioxonil) or with phenylalanine during flowering. (FIG. 23A). Powdery Mildew incidence (percentage) per inflorescence in mango orchard. (FIG. 23B). Anthracnose incidence (percentage) on harvested mango stored at ambient temperature for 12 days. (FIG. 23CB). Anthracnose incidence (percentage) on harvested avocado stored at ambient temperature for 14 days.
Flowering is one of the more susceptible organs of the tree. Pathogenic fungi can penetrate during flowering and either infect the flower (e.g., powdery mildew) or endophytically colonize the stem and the fruit without causing any visible symptoms. Those fungi (e.g. Colletotrichum and Lasiodiplodia) become active during abiotic stress or during fruit ripening and cause fruit stem-end rot and anthracnose.

[2] = Number of flowers and stigmas of Petunia plants
Experimental: FIGS. 22A-22C are vertical bar graphs showing the effect of Phe solution on the number of flowers per plant. Petunia plants were treated once a week for 5 weeks with Phe solution (2 mM, 6 mM, 15 mM, 35 mM, or none, i.e., control). Numbers of flowers were counted and documented over a period of 7 weeks for Petunia ‘easy-rider’ strain (FIG. 22A) and Petunia ‘white dreams’ strain (FIG. 22B).

[3] = postharvest treatment of 'Shelly' mango, FIG. 4

**Q.** With `N[C@@H](Cc1ccccc1)C(=O)O` [Phe, Phenylalanine] as the compound, how does the “Decay severity in comparison to the untreated control fruits” value (“Decay severity in comparison” for short) (Alternaria alternata) read?
**A.** The value was “reduced the decay severity”.

**Q.** What about the “Protection against Botrytis” value (Botrytis; 6 mM Phe, sprayed or drenched, petunia, 7-10 days after infection) of the same compound?
**A.** Its value is “might not be effective enough”.

**Q.** What about the “Plant health and pathogen status” value (Botrytis; 15 and 35 mM Phe, drenched, petunia) of the same compound?
**A.** The value was “healthy, pathogen free”.

**Q.** And the “Resistance to Botrytis” value (Botrytis; 35 and 50 mM Phe, sprayed, petunia, FIG. 7)?
**A.** The value was “much higher resistance to Botrytis”.

**Q.** And the “Phe concentration at which resistance to Botrytis was apparent” value (Botrytis; drenching Phe, FIGS. 8A-8B)?
**A.** The value was ≥ 6 mM.

**Q.** What about the “Phe concentration at which resistance to Botrytis was apparent” value (Botrytis; sprayed Phe, FIGS. 7A-7B) of the same compound?
**A.** Its value is ≥ 6 mM.

**Q.** What about the “Inhibition of pathogenic activity” value (Lasiodiplodia theobromae; 2 mM phenylalanine) of the same compound?
**A.** Its value is “did not suffice”.

**Q.** What about the “Inhibition of pathogenic activity” value (Lasiodiplodia theobromae; 4 mM phenylalanine) of the same compound?
**A.** Its value is “substantially inhibited the pathogenic activity”.

**Q.** And the “Decay severity in comparison” value (Lasiodiplodia theobromae; [3])?
**A.** The value was “reduced the decay severity”.

**Q.** And the “Inhibition of pathogenic activity” value ([1]; 2 mM phenylalanine)?
**A.** Its value is “did not suffice”.

**Q.** And the “Inhibition of pathogenic activity” value ([1]; 4 mM phenylalanine)?
**A.** The value was “substantially inhibited the pathogenic activity”.

**Q.** What about the “Decay severity in comparison” value [1, 3] of the same compound?
**A.** The value was “reduced the decay severity”.

**Q.** And the “Incidence of the Bemisia tabaci silver leaf whitefly on tomato leaves” value (Bemisia tabaci)?
**A.** Its value is “significantly suppressed”.

**Q.** And the “Severity of damage of the moth Tuta absoluta leaf miner on tomato leaves” value (Tuta absoluta; 4 mM Phe solution, drench or spray, each treatment, FIG. 3C)?
**A.** The value was “significantly suppressed”.

**Q.** And the “Leaf miner symptoms, small (up to 1 cm long) and large” value (Tuta absoluta; 4 mM Phe spray and Phe drench, 30 days after treatment, FIG. 3D)?
**A.** The value was “suppressed”.

**Q.** And the “Rate (in %) of larger leaf miner symptoms” value (Tuta absoluta; 4 mM Phe spray and drench, 30 days after treatment, FIG. 3E)?
**A.** Its value is “reduced”.

**Q.** What about the “Postharvest anthracnose in mango” value (Anthracnose) of the same compound?
**A.** The value was “reduced”.

**Q.** What about the Number of flowers ([2]; Phe solution once a week for 5 weeks vs control, FIGS. 22A-22B) of the same compound?
**A.** The Number of flowers was “more flowers”.

**Q.** And the Number of stigmas ([2]; Phe solution vs control, FIG. 22C)?
**A.** Its Number of stigmas is “more flowers and stigmas; also recorded: more stigmas compared to control”.
